From article PMC7269481, “ZN148 Is a Modular Synthetic Metallo-β-Lactamase Inhibitor That Reverses Carbapenem Resistance in Gram-Negative Pathogens In Vivo” (Antimicrobial Agents and Chemotherapy, 2020)
Converted amounts (≈) assume the structure as drawn. “Also recorded” adds a separate entry of the source. Where two headings read alike, the source gives them in different places.

Tests used:
[1] = tested on: female BALB/c mice; experiment: In vivo tolerance (maximum tolerated dose study); settings: weekly i.p. doses 4 to 128 mg/kg
Protocol: In vivo tolerance of ZN148 was performed by Antineo (Lyon, France). Female BALB/c mice (4 weeks old, approximately 20 g; Charles River, L’Arbresle, France) were acclimatized 4 days in the animal facility before the initiation of experiments. Groups of six mice were either untreated or treated with 200 μl of ZN148 (0.4 to 12.8 g/liter) i.p. once a week. Doses were doubled each week (4 to 128 mg/kg) in the absence of any observed weight loss or modification in behavior. Individual weights were monitored 4 days a week. The relative weights were calculated as ratios between the weight of the day and the weight at the initiation of the experiment. Animals were also followed for macroscopic modifications in behavior. The protocol for experiments in mice was approved by the University of Lyon Animal Ethics Committee (Comité d’Ethique en Expérimentation Animale de l’Université Claude Bernard [Lyon, France], authorization number DR2015-09).

[2] = tested on: MBL-producing P. aeruginosa clinical strains; experiment: Carbapenem MIC, MBL-producing P. aeruginosa; format: cell-based; settings: 50 μM ZN148; n = 52
Protocol: (§1) MICs of carbapenems alone and in combination with inhibitors were determined by broth microdilution according to the Clinical and Laboratory Standards Institute (CLSI) guidelines ([48]) using either premade plates (TREK Diagnostic Systems/Thermo Fisher Scientific, East Grinstead, United Kingdom) with meropenem or in-house-prepared plates with meropenem, imipenem, and doripenem. ZN148 and other inhibitors were tested at a fixed concentration of 50 μM. Cation-adjusted Mueller-Hinton medium (TREK Diagnostic Systems/Thermo Fisher Scientific; Becton Dickinson, Franklin Lakes, NJ) were used as growth medium. The plates were incubated for 20 h at 37°C. ZN148, ZN222, ZN223, ZN228, and TPA were initially tested in combination with meropenem using two indicator strains: NDM-1-producing K. pneumoniae ([49], [50]) and VIM-2-producing P. aeruginosa ([51]). The activity of ZN148 were subsequently tested against two extended strain collections: (i) in combination with meropenem against MBL-producing Enterobacterales (n = 62), MBL-producing P. aeruginosa (n = 9) and MBL- and class D carbapenemase-coproducing Enterobacterales (n = 5) from the strain collection at the Norwegian National Advisory Unit on Detection of Antimicrobial Resistance and (ii) in combination with meropenem, imipenem, and doripenem against globally collected MBL-producing E. coli (n = 87), K. pneumoniae (n = 85), P. aeruginosa (n = 52), and A. baumannii (n = 6), MBL- and class A/D carbapenemase-coproducing E. coli (n = 11), K. pneumoniae (n = 15) and A. baumannii (n = 7) at IHMA Europe, Sàrl, Switzerland. E. coli ATCC 25922 and P. aeruginosa ATCC 27853 were used as quality control strains. The MBL inhibitors were also tested for intrinsic antibacterial activity against the strains.

[3] = biological target: T1, NDM-1 (Klebsiella pneumoniae, UniProt C7C422); experiment: Zinc content determination by ICP-MS, NDM-1; format: biochemical; settings: ICP-MS after preincubation
T1 construct: made in house
T1 sequence (C7C422 29-270, looked up): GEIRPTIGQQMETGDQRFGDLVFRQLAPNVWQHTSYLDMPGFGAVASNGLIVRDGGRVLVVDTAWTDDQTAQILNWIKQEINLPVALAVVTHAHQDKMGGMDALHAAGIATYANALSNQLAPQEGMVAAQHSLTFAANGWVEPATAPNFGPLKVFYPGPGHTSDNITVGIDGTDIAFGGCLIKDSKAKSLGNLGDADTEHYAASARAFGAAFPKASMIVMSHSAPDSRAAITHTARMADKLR

[4] = tested on: the strains (MBL-producing Gram-negative clinical strains); experiment: Intrinsic antibacterial activity of the inhibitor; format: cell-based; settings: concentrations up to 500 μM
Protocol: MICs of carbapenems alone and in combination with inhibitors were determined by broth microdilution according to the Clinical and Laboratory Standards Institute (CLSI) guidelines ([48]) using either premade plates (TREK Diagnostic Systems/Thermo Fisher Scientific, East Grinstead, United Kingdom) with meropenem or in-house-prepared plates with meropenem, imipenem, and doripenem. ZN148 and other inhibitors were tested at a fixed concentration of 50 μM. Cation-adjusted Mueller-Hinton medium (TREK Diagnostic Systems/Thermo Fisher Scientific; Becton Dickinson, Franklin Lakes, NJ) were used as growth medium. The plates were incubated for 20 h at 37°C. ZN148, ZN222, ZN223, ZN228, and TPA were initially tested in combination with meropenem using two indicator strains: NDM-1-producing K. pneumoniae ([49], [50]) and VIM-2-producing P. aeruginosa ([51]). […]

[5] = biological target: T2, recombinant human glyoxylase II (Homo sapiens, UniProt Q16775); experiment: Interaction with human glyoxylase II; format: biochemical; settings: 500 μM
T2 construct: purchased R&D Systems
Protocol: Recombinant human glyoxylase II (rHGly II; R&D Systems) was incubated with or without ZN148 (final concentrations of 125, 250, and 500 μM) for 10 and 30 min at 25°C in 50 mM Tris buffer (Merck) supplemented with 250 mM NaCl (pH 7.5). Then, 50 μl of substrate mixture containing 2 mM S-lactoylglutathione and 400 μM 5,5′-dithiobis(2-nitrobenzoic acid) (Sigma-Aldrich) was mixed with 50 μl of the preincubated rHGly II at a final enzyme concentration of 0.2 ng/μl. The initial enzymatic velocity was measured at 405 nm in 96-well plates (Thermo Fisher Scientific, Roskilde, Denmark) at 25°C in a SpectraMax Plus plate reader (Molecular Devices). EDTA (Merck) was included as a control.

[6] = Solubility measurement in PBS; format: physicochemical
Protocol: The solubility of ZN148 was evaluated in PBS buffer at pH 7.4. Increasing amounts of ZN148 was dissolved in 1.0 ml at room temperature by gentle swirling of the solution in a glass vial. A total of 1.225 g of ZN148 was successfully dissolved in 1.0 ml of PBS buffer, giving a total volume of 1.8 ml. This solution was stable at 4°C for more than 6 weeks without precipitation.

[7] = tested on: A. baumannii co-producing MBLs and class A/D serine carbapenemases; experiment: Carbapenem MIC, A. baumannii co-producing NDM-1 and class D carbapenemases; format: cell-based; settings: carbapenem alone or with 50µM ZN148, one value per strain
Protocol: as §1

[8] = tested on: E. coli with VIM (n=7); experiment: Meropenem MIC distribution, E. coli with VIM; format: cell-based; settings: MEM alone or +50 µM ZN148
Protocol: as §1

[9] = tested on: K. pneumoniae with NDM (n=95); experiment: Meropenem MIC distribution, K. pneumoniae with NDM; format: cell-based; settings: MEM alone or +50 µM ZN148
Protocol: as §1

[10] = tested on: class A carbapenemase (KPC)-producing E. cloacae; experiment: Carbapenem MIC, class A carbapenemase-producing E. cloacae; format: cell-based; settings: carbapenem alone or with 50µM ZN148
Protocol: as §1

[11] = tested on: Other Enterobacterales with MBLs (n=10); experiment: Meropenem MIC distribution, other Enterobacterales with MBLs; format: cell-based; settings: MEM alone or +50 µM ZN148
Protocol: as §1

[12] = tested on: E. coli with NDM (n=102); experiment: Meropenem MIC distribution, E. coli with NDM; format: cell-based; settings: MEM alone or +50 µM ZN148
Protocol: as §1

SMILES: CN(C[C@H](O)[C@@H](O)[C@H](O)[C@H](O)CO)C(=O)c1ccc(CN(Cc2ccccn2)Cc2ccccn2)nc1 [ZN148]
- clinical signs (hair loss or bristly hair, immobility, prostration) test vs control groups [1]: no significant differences
- loss of weight compared to initial weight [1]: < 10%
- strains with restored clinical susceptibility, in combination with doripenem [2]: 15%
- strains with restored clinical susceptibility, in combination with imipenem [2]: 25%
- strains with restored clinical susceptibility, in combination with meropenem [2]: 17%
- zinc removed from enzyme [3]: ~1.3 molar equivalents
- intrinsic antibacterial activity [4]: no intrinsic antibacterial activity
- inhibitory activity against recombinant human glyoxylase II [5]: no inhibition; also recorded: no inhibitory activity
- solubility ([6]; PBS buffer, pH 7.4, aqueous buffer, thermodynamic from solid, in phosphate-buffered saline [PBS]): 1220 mg/mL (≈ 2390 mM)
- stability of the solution without precipitation ([6]; at 4°C, 1.225 g in 1.0 ml PBS): more than 6 weeks
- amount dissolved in 1.0 ml of PBS buffer ([6]; pH 7.4, room temperature, total volume 1.8 ml): 1.225 g

SMILES: C[C@@H](O)[C@H]1C(=O)N2C(C(=O)O)=C(S[C@@H]3CN[C@H](C(=O)N(C)C)C3)[C@H](C)[C@H]12 [meropenem]
- MIC ([7]; NDM-1 + OXA-23-like strains): > 64 mg/L
- MIC ([7]; NDM-1 + OXA-24-like, OXA-58-like strains): > 64 mg/L
- No. of strains with indicated MIC ([8]; MIC 0.5 mg/L): 1
- No. of strains with indicated MIC ([8]; MIC 8 mg/L): 3
- No. of strains with indicated MIC ([8]; MIC 16 mg/L): 2
- No. of strains with indicated MIC ([8]; MIC 32 mg/L): 1
- No. of strains with indicated MIC ([9]; MIC 2 mg/L): 1
- No. of strains with indicated MIC ([9]; MIC 8 mg/L): 1
- No. of strains with indicated MIC ([9]; MIC 16 mg/L): 3
- No. of strains with indicated MIC ([9]; MIC 32 mg/L): 10
- No. of strains with indicated MIC ([9]; MIC ≥64 mg/L): 80
- MIC ([10]; Enterobacter cloacae, KPC-2 strains, one value per strain, read-out: MIC): 16 µg/mL
- MIC ([10]; Enterobacter cloacae, KPC-3 strain, read-out: MIC): 2 µg/mL
- MIC ([10]; KPC-2 strains, one value per strain, listed as MEM): 32 µg/mL
- No. of strains with indicated MIC ([11]; MIC 4 mg/L): 1
- No. of strains with indicated MIC ([11]; MIC 8 mg/L): 2
- No. of strains with indicated MIC ([11]; MIC 16 mg/L): 3
- No. of strains with indicated MIC ([11]; MIC 32 mg/L): 2
- No. of strains with indicated MIC ([11]; MIC ≥64 mg/L): 2
- No. of strains with indicated MIC ([12]; MIC 1 mg/L): 2
- No. of strains with indicated MIC ([12]; MIC 4 mg/L): 6
- No. of strains with indicated MIC ([12]; MIC 8 mg/L): 2
- No. of strains with indicated MIC ([12]; MIC 16 mg/L): 8
- No. of strains with indicated MIC ([12]; MIC 32 mg/L): 19
- No. of strains with indicated MIC ([12]; MIC ≥64 mg/L): 65
